Measured values reported in article PMC9560627, “Targeting Echinococcus multilocularis PIM kinase for improving anti-parasitic chemotherapy” (PLoS Neglected Tropical Diseases, 2022).
Like-named read-outs stand apart in the source and are kept apart here.

Experiments:
HepG2 cells = test: Mammalian cell toxicity, Cell Titer Glo 2.0 viability; assay type: cell-based, human; conditions: for IC50: read-out: IC50 against HepG2 cells
Experimental: (§1) The toxicity of inhibitors against mammalian cells was evaluated by treatment of the commonly used cell lines HEK293T [42] and HepG2 [43], which were cultivated and passaged as described in [43, 44]. […] 24 h after seeding, 50 μl of DMEM+GlutaMAX-I including FBS and inhibitors were added. Final concentrations of inhibitors were adjusted to 0–30 μM as indicated, DMSO alone was used as a control. Plates were incubated for 3 d under aerobic conditions and cell viability was measured using the Cell Titer Glo 2.0 system (Promega) according to the manufacturer’s instructions. Luminescence was measured by a Spectramax iD3 Multi-mode Microplate reader (Molecular Devices). Three independent experiments with three technical replicates were carried out for both cell lines. Luminescence units were normalized to the DMSO control of each independent experiment and expressed as percentage of luminescence unit. One-Way-ANOVA test followed by Tukey’s multiple comparisons test was used in GraphPad Prism version 9.3.1 (Graphpad software) for statistical analysis. Based on the cell viability data, dose-response curves were drawn and IC50 (best fit value) were calculated using GraphPad Prism version 9.3.1 (Graphpad software).

HEK293T cells = test: as above; assay type: cell-based, human; conditions: for IC50: read-out: IC50 against HEK293T cells
Experimental: as §1

human Pim-2 = conditions: cited from earlier work
human Pim-1 = conditions: cited from earlier work
E. multilocularis PC [1] = test: Vesicle formation assay (MV formation from PC); assay type: cell-based, Echinococcus multilocularis
Experimental: In vesicle formation assays, PC were isolated as described above and 100 U of isolated PC (~1.5×10^4 cells/well) were seeded in 96 well plates with 200 μl of conditioned medium (50% A6 medium + 50% B4 medium) for 21 d under nitrogen atmosphere. The number of newly formed vesicles was counted using an optical microscope (Nikon eclipse Ts2-FL) essentially as previously described. Kruskal-Wallis test followed by Dunn’s multiple comparisons test was used in GraphPad Prism version 9.3.1(Graphpad software) to analyze the difference of vesicle numbers in control and treatment groups. In this analysis, all concentrations were compared with the negative control DMSO. Experiments with SGI-1776 and CX-6258 were performed in three biological and technical replicates. Experiments with SGI-1776 and Z196138710 were performed in three technical replicates.

human Pim-3 = conditions: cited from earlier work
E. multilocularis MV = test: Mature metacestode vesicle (MV) assay, structural integrity by microscopy; assay type: cell-based, Echinococcus multilocularis; conditions: for structural vesicle damage of MV (screen of 20 in silico compounds): 3 and 10 μM
Experimental: In mature MV assays, 10 individual MV each were cultured in 2 ml of conditioned medium (100% A6 medium) in the presence of inhibitors in 12 well plates under axenic conditions for 28 d as described in [39]. […] Structural integrity of MV was assessed using an optical microscope (Nikon eclipse Ts2-FL). Experimental set-up and execution of inhibitor studies and structural integrity assessment was performed by independent experimenters. Criteria for intact or damaged vesicles were essentially as previously described. All experiments were performed using 3 biological replicates. Percentages of structurally intact vesicles were statistically analyzed with one-way ANOVA with Dunnet’s multiple comparison tests in Graphpad prism 9.3.1(Graphpad software).

FLT3 = conditions: cited from earlier work
haspin = conditions: cited from earlier work
E. multilocularis = test system: E. multilocularis; parameters: method as in PMID 26389799; conditions: cited from earlier work
E. multilocularis PC [2] = test: Cell viability assay (Cell Titer Glo 2.0) on E. multilocularis primary cell cultures (PC), initial kinase inhibitor screen; assay type: cell-based, Echinococcus multilocularis; conditions: for inhibition at 10 µM: Echinococcus multilocularis, read-out: growth inhibition of Echinococcus PC
[3] = test system: a broad variety of other cell types, including chronic lymphocytic leukemia cells; parameters: method as in PMID 22052829, PMID 19734450; conditions: read-out: in vitro IC50 against a broad variety of other cell types; cited from earlier work
[4] = parameters: method as in PMID 30370255; conditions: non-Hodgkin lymphoma and prostate cancer; cited from earlier work
solid tumour xenografts = test system: solid tumour xenografts; parameters: method as in PMID 22052829, PMID 25589932; conditions: mice, plasma concentrations around 3 μM free compound; cited from earlier work
[5] = cited from earlier work
[6] = test system: human Ether-á-go-go-related (hERG) cardiac ion channel; conditions: cited from earlier work
Echinococcus = conditions: ref PMID:9593125; cited from earlier work
[7] = response to reviewers, ref literature, not numbered at the place

CN1CCCN(C(=O)c2cccc(-c3ccc(/C=C4/C(=O)Nc5ccc(Cl)cc54)o3)c2)CC1 [CX-6258]
effect on HepG2 cells (HepG2 cells; 30 and 10 μM, 3 d): fully eliminated
IC50 (HepG2 cells; 3 d, cell viability): ~1 µM
effect on HEK293T cells (HEK293T cells; 30 and 10 μM, 3 d): fully eliminated
IC50 (HEK293T cells; 3 d, cell viability): ~1 µM
IC50 (human Pim-2; read-out: IC50 Pim-2): 0.025 µM
MV formation from stem cells (PC) (E. multilocularis PC [1]; 3 μM, 21 d): drastically affected MV formation
MV formation from stem cells (PC) (E. multilocularis PC [1]; concentrations higher than 3 μM, 21 d): completely inhibited MV development
IC50 (human Pim-3; read-out: IC50 Pim-3): 0.016 µM
effect on structural integrity of mature MV (E. multilocularis MV; 3 μM, 28 d): did not lead to statistically significant effects
effect on structural integrity of mature MV (E. multilocularis MV; 10 μM, 28 d): drastic loss of structural integrity of all
IC50 (FLT3; read-out: IC50 FLT3): 0.134 µM
activity against haspin kinase (haspin; melanoma cell lines): much higher IC50 values than against Pim-1 and Pim-3

CCCSc1ccc2nc(NC(=O)OC)[nH]c2c1 [albendazole]
efficacy against the parasite in AE patients (E. multilocularis): effective against the parasite in only one third of cases

Cc1noc(C)c1COc1cccc(C(=O)N2CCC(C(N)=O)CC2)c1 [Z30898879]
structural vesicle damage of MV (screen of 20 in silico compounds) (E. multilocularis MV; 28 d): highly effective in inducing structural vesicle damage

COc1cc(CNc2ncnc3ccsc23)ccc1OC(F)F [Z196138710, N-(4-(difluoromethoxy)-3-methoxybenzyl)-thieno-[3,2-d]-pyrimidin-4-amine]
inhibition of HepG2 cells (HepG2 cells; 30 and 10 μM, 3 d): 40–60%
IC50 (HepG2 cells; Homo sapiens, HepG2, 72 h, 3 d, cell viability): 16 µM
inhibition of HEK293T cells (HEK293T cells; 30 and 10 μM, 3 d): 40–60%
IC50 (HEK293T cells; Homo sapiens, HEK-293T, 72 h, 3 d, cell viability): 11 µM
concentration effective against the parasite, stem cell cultures (E. multilocularis PC [1]): 3 µM
MV formation from stem cells (PC) (E. multilocularis PC [1]; 10 μM, 21 d): completely prevented MV formation
MV development from primary cells, comparison with SGI-1776 (E. multilocularis PC [1]; different concentrations, 21 d): effects similar to those of SGI-1776
concentration effective against the parasite, mature MV (E. multilocularis MV): 10 µM
structural disintegration of MV (E. multilocularis MV; 10 μM, 28 d): 100%
structural vesicle damage of MV (screen of 20 in silico compounds) (E. multilocularis MV; 28 d): highly effective in inducing structural vesicle damage

Cc1nc(Nc2ncc(C(=O)Nc3c(C)cccc3Cl)s2)cc(N2CCN(CCO)CC2)n1 [Dasatinib]
effect on parasite PC proliferation (E. multilocularis PC [2]; 10 μM, 3 d and 7 d): stimulated parasite cell proliferation

CN1CCC(CNc2ccc3ncc(-c4cccc(OC(F)(F)F)c4)n3n2)CC1 [SGI-1776]
IC50 [3]: ~3 µM
effect on HepG2 cells (HepG2 cells; 30 and 10 μM, 3 d): fully eliminated
IC50 (HepG2 cells; Homo sapiens, HepG2, 72 h): ~1 µM
effect on HEK293T cells (HEK293T cells; 30 and 10 μM, 3 d): fully eliminated
IC50 (HEK293T cells; Homo sapiens, HEK-293T, 72 h): ~1 µM
IC50 (human Pim-2; read-out: IC50 against human Pim-2): 0.363 µM
MV formation from stem cells (PC) (E. multilocularis PC [1]; 3 μM, 21 d): did not lead to statistically significant effects
MV formation from stem cells (PC) (E. multilocularis PC [1]; 10 μM, 21 d): almost completely
MV formation from stem cells (PC) (E. multilocularis PC [1]; 30 μM, 21 d): completely prevented
toxicity in clinical phase I trials [4]: toxicity in cardiac electric cycle prolongation
efficacy against solid tumour xenografts (solid tumour xenografts): effective against solid tumour xenografts in mice
compound bound to plasma proteins ([5]; in vivo application in mice): around 95%
well tolerated plasma concentration of free compound (not bound to plasma proteins) ([5]; mice): around 3 μM
drug bound to human plasma protein [5, 7]: about 95%
inhibition at 10 µM (E. multilocularis PC [2]; 72 h): ~60%
inhibition at 10 µM (E. multilocularis PC [2]; 168 h): ~80%
IC50 (human Pim-3; read-out: IC50 against human Pim-3): 0.069 µM
cause of toxicity in clinical trials: hERG [6]: off-target effects
effect on structural integrity of mature MV (E. multilocularis MV; 3 μM, 28 d): did not lead to statistically significant effects
effect on structural integrity of mature MV (E. multilocularis MV; 10 μM, 28 d): almost all
IC50 (FLT3; read-out: IC50 against FLT3): 0.044 µM
IC50 (haspin; read-out: IC50 against haspin): 0.034 µM

COC(=O)Nc1nc2ccc(C(=O)c3ccccc3)cc2[nH]1 [mebendazole]
efficacy against the parasite in AE patients (E. multilocularis): effective against the parasite in only one third of cases
in vitro active concentrations (Echinococcus): 1 to 10 µM

CN(C)C(=O)CN1CCN(Cc2nc3scc(-c4ccccc4Cl)c3c(=O)[nH]2)CC1 [Z65225039]
structural vesicle damage of MV (screen of 20 in silico compounds) (E. multilocularis MV; 28 d): highly effective in inducing structural vesicle damage

CCC1CN(Cc2nc3cc(OC)c(OC)cc3c(=O)[nH]2)CCO1 (stereo not drawn) [Z354576500]
structural vesicle damage of MV (screen of 20 in silico compounds) (E. multilocularis MV; 28 d): highly effective in inducing structural vesicle damage
